Assay results from patent publication US6972319B1, “Pituitary adenylate cyclase activating peptide (PACAP)receptor 3 (R3) agonists and their pharmacological methods of use” (priority 1999, dated 2005).
pEC50: −log10 of the molar value. No end group written: not given here.

Tests used:
PACAP-R3 = target: T1, PACAP-R3 (Homo sapiens, UniProt P41587); experiment: Cyclic AMP SPA on CHO cells expressing PACAP R3; format: cell-based; set-up: expressed in transfected cells; host or cells: CHO cells (Geneticin selection); settings: for pEC50: cAMP SPA, CHO cells transfected with PACAP-R3, concentration at which 50% of maximum PACAP27 activity is achieved, NA = no detectable activities, read-out: R3 EC50; for R3 Selectivity: ratio of EC50 at R2 versus EC50 at R3
T1 sequence (P41587 24-438): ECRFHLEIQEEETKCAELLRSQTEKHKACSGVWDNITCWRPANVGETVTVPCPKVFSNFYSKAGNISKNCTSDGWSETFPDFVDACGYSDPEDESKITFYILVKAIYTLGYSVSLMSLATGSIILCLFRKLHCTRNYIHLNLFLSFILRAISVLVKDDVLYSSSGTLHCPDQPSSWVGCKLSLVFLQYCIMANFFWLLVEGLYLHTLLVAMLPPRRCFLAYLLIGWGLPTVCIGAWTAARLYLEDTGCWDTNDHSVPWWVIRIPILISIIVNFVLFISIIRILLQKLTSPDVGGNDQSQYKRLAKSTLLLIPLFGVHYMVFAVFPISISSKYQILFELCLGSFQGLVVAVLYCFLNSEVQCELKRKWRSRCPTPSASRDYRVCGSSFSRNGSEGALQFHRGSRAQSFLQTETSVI
How it was run: (§1)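 Transfected CHO cells grown 24 h were exposed to peptide for 15 min at 37 C in Hepes-PBS-BSA containing 100 uM IBMX, 0.4 mg/ml soybean trypsin inhibitor and 0.5 mg/ml bacitracin. Cellular cAMP was measured by scintillation proximity assay. EC50 is the peptide concentration giving 50% of maximal PACAP27 activity.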

PACAP-R2 = target: T2, PACAP-R2 (Homo sapiens, UniProt P32241); experiment: Cyclic AMP SPA on CHO cells transfected with PACAP-R2; format: cell-based; settings: cAMP SPA, concentration at which 50% of maximum PACAP27 activity is achieved, NA = no detectable activities, read-out: R2 EC50
T2 construct: expressed in transfected cells; host or cells: CHO cells
T2 sequence (P32241 31-457): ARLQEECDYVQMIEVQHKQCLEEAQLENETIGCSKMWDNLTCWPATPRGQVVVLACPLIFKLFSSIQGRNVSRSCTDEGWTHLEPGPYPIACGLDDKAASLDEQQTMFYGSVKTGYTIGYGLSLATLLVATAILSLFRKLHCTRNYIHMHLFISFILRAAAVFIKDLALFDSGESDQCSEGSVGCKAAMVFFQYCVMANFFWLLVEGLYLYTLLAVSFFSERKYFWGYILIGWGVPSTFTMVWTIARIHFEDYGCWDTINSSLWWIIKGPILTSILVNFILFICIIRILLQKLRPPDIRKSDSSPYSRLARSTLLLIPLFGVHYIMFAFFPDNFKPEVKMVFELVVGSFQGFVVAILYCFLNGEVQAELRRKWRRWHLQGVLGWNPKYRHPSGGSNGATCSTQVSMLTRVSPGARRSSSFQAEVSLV
How it was run: as §1

Substance	pEC50 (PACAP-R3)	R3 Selectivity (PACAP-R3)	pEC50 (PACAP-R2)
HSDAVFTDNYTRLRKQMAAKKYLNSIHNKR [Peptide R3P122]	9.70	50	8.00
HSDAVFTDNYTRLRKQMAVKKYLNSIKK-NH2 [Peptide R3P8]	8.85	1.5	8.70
HSDAVFTDNYTRLRKQMAAKKYLNSIKNTR [Peptide R3P149]	9.30	80	7.40
HSDAVFTDNYTRLRKQVAAKKYLQSIKNK [Peptide R3P86]	9.10	110	7.05
H-HSDAVFTDNYTRLRKQMAAKKYLNSIKNKH [Peptide R3P159]	9.30	400	6.70
H-HSDGIFTESYSRYRKQMAVKKYLAALKKKRYKQRVKNK [Peptide R3P6]	7.10	3	6.66
HSDAVFTDNYTRLRKQMASKKYLNSIRNRI [rR3P193]	8.72	110	6.70
HSDAVFTDNYTRLRKQVAAKKYLNSIKNKRY [Peptide R3P79]		200	7.00
HSDAVFTDNYTRLRKQMAVKKYLNSIKK [Peptide R3P41]	10.10	100	8.10
HSDAVFTDNYTRLRKQMAAKKYLNSIKKKRY [Peptide R3P52]	9.40	>250	< 7.00
ESDGIFTDSYSRYRKQMAVKKYLAAVL-NH2 [PAC1]	8.00	97	6.01
HSDAVFTDNYTRLRKQMAAKKYLNSIKNRR [Peptide R3P147]	9.70	500	7.00
HSDAVFTDNYTRLRKQMAAKKYLNSIKNKN [Peptide R3P164]	9.52	300	7.00
H-HSDAVFTDNYTRLRKQMAVKKYLNSIKN [Peptide R3P42]	10.52	10	9.52
HSDAVFTDNYTRLRKQMASKKYLNSIQNRI [rR3P188]	8.66	70	6.82
HSDAVFTDNYTRLRKQMARKKYLNSIRNRI [rR3P192]	9.22	60	7.40
H-HSDAVFTDNYTRLRKQMAAKKYLNDIKKGGT [Peptide R3P20]	8.85	230	6.48
HSDAVFTDNYTRLRKQVAVKKYLQSILKK [Peptide R3P89]	10.22	15	9.05
HSDAVFTDNYTRLRKQLAAKKYLNDIKKQ [Peptide R3P34]	8.85	>70	< 7.00

Substance	pEC50 (PACAP-R3)	R3 Selectivity (PACAP-R3)	pEC50 (PACAP-R2)
HSDAVFTDNYTRLRKQMAGKKYLNSIPNRI [rR3P180]	8.17	>20	< 7.00
H-HSDAVFTDNYTRLRKQMAAKKYLNSIQNKR [Peptide R3P127]	9.30	600	6.52
HSDAVFTDNYTRLRKQMAAKKYLNSIKNHR [Peptide R3P140]	9.52	50	7.82
HSDAVFTDQYTRLRKQLAAHKYLNTIKNKRY [Peptide R3P75]	9.52	>500	< 6.82
HSDAVFTDNYTRLRKQMASKKYLNSIKNRI [rR3P178]	9.12	110	7.10
HSDGIFTDSYSRYRKQMAVKKYLAAVK-NH2 [PAC27]	8.96	1.4	8.82
HSDGIFTDSYSRYREQMAVKKYLAAVL-NH2 [PAC15]	9.70	12	8.62
HSDAVFTDNYTRLRKQMAAKKYLNSIANKR [Peptide R3P116]	9.00	20	7.70
HSDAVFTDNYTRLRKQMAAKKYLNSIKNKP [Peptide R3P165]	9.30	300	6.82
H-HSDGIFTDSYSEYRKQMAVKKYLAAVL-NH2 [PAC12]	8.52	50	6.82
HSDAVFTDNYTRLRKQMAGKKYLNSIKNKR [Peptide R3P101]	9.00	400	6.40
HSDAVFTENYTRLRKQMAVKKYLNSLKK-NH2 [Peptide R3P7]	8.40	0.5	8.70
HSDAVFTDNYTRLRKQVAAKKYLNSIKK [Peptide R3P62]	8.74	100	6.74
HSDGIFTDSYKRYRKQMAVKKYLAAVL-NH2 [PAC11]	6.85	0.1	8.00
HSDAVFTDNYTRLRKQMAAKKYLNSIKKK [Peptide R3P54]	9.30	>200	< 7.00
HSDAVFTDNYTRLRKQMAAKKYLNSIPNKR [Peptide R3P126]	9.00	200	6.70
HSDAVFTDNYTRLRKQMAAKKYLNSIKNQR [Peptide R3P146]	9.52	100	7.52
HSDAVFTENYTKLRKQLAAKKYLNDLKK [Peptide R3P5]	8.15	30	6.70
HSDAVFTDNYTRLRKQMAKKKYLNSIQNRI [rR3P186]	8.80	44	7.15

Substance	pEC50 (PACAP-R3)	R3 Selectivity (PACAP-R3)	pEC50 (PACAP-R2)
HSDAVFTDNYTRLRKQMAAKKYLNSILN [Peptide R3P47]	9.92	6	9.15
HSDAVFTDNYTRLRKQMARKKYLNSIPNRI [rR3P182]	8.49	90	6.55
HSDAVFTDNYTRLRKQVAAKKYLQSILNKR [Peptide R3P93]	9.85	40	8.22
HSDAVFTDNYTRLRKQLAAKKYLNSIKKGGT [Peptide R3P22]	8.80	24	7.42
HSDAVFTDNYTRLRKQLAVKKYLNSILN [Peptide R3P46]	10.22	7	9.40
HSDAVFTDNYTRLRKQMAAKKYLNSITNKR [Peptide R3P130]	9.00	40	7.40
HSDAVFTDNYTRLRKQMARKKYLNSIKNKR [Peptide R3P110]	9.30	200	7.00
HSDAVFTDNYTRLRKQMAAKKYLNSIKNGR [Peptide R3P139]	9.40	50	7.70
HSDAVFTDNYTRLRKQMAYKKYLNSIKNKR [Peptide R3P115]	8.22	50	6.52
HSDAVFTDNYTRLRKQMAAKKYLNSIKNIR [Peptide R3P141]	9.70	100	7.70
HSDAVFTDNYTRLRKQVAAKKYLNSIKNKRY [Peptide R3P68]	9.30	260	6.89
HSDGIFTDSYSRYEKQMAVKKYLAAVL-NH2 [PAC14]	8.80	70	6.96
HSDGIFTKSYSRYRKQMAVKKYLAAVL-NH2 [PAC8]	7.33	1	7.37
HSDAVFTDNYTRLRKQMAAKKYLNSIKNDR [Peptide R3P136]	9.52	70	7.70
HSDAVFTDNYTRLRKQLAAKKYLNSIKNGGT [Peptide R3P30]	9.40	50	7.70
HSDAVFTDNYTRLRKQLAVKKYLNSIKKGGT [Peptide R3P25]	9.15	20	7.82
HSDAVFTDNYTRLRKQMAKKKYLNSIRNRI [rR3P191]	8.57	>80	< 6.70
HSDAVFTDNYTRLRKQMAVKKYLNSIKKKR [Peptide R3P57]	9.64	190	7.38
